Values of other authors in publication PMC11600176 (JACS Au, 2024).

Conditions: aerated acetonitrile

Φf fluorescence quantum yield of the standard: 0.48
SMILES: CCCN1C(=O)c2cccc3c(N)ccc(c23)C1=O [N-propyl-4-amino-1,8-naphthalimide]
